According to publication PMC9028219 (Frontiers in Nutrition, 2022):

System: Sarcoma-180 (S-180) tumor
Settings: 20 mg/kg bw i.p.
Method: The S-180 cells were collected from Swiss albino mice harboring 8–10 days old cells from the peritoneal cavity. On day 0, the S-180 cells (1 × 10^7 cells/ml) were injected intra-peritoneal in non-inbred female Swiss albino mice (22–25 g, 8–10 weeks old) selected for the experiment. The next day (Day 1), the animals were randomized and divided into three treatment groups, one positive control group and one vehicle control group containing 5 animals in each group. […] The fourth group was given 5-fluorouracil; positive control at a dose of 20 mg/kg bw i.p. from day 1–9, and the fifth group (control) was administered normal saline (0.2 ml i.p.) for 9 days. On day 12, the animals were sacrificed, and the fluid was collected from each mouse's peritoneal cavity to evaluate tumor growth ([43]). The tumor growth inhibition was calculated using the following formula.
Tumor Growth Inhibition(%)=(Number of tumor cells in control group-Number of tumor cells in the test group)/Number of tumor cells in the control group×100

[1] = days 1-9, evaluated day 12, n = 5

Q: How did the Tumor growth inhibition (days 1-9, evaluated day 12) turn out when `O=c1[nH]cc(F)c(=O)[nH]1` [5 FU, 5-fluorouracil, reference compound] was run?
A: 93.75%

Q: And the “Tumor cell count Mean ± S.E” value [1]?
A: 5 ± 0.28^*** 1 × 10^7

Q: What about the “Tumor volume Mean ± S.E” value [1] of the same compound?
A: 0.16 ± 0.01 mL

Q: What about the “Tumor weight Mean ± S.E” value [1] of the same compound?
A: 0.16 ± 0.01 g
